Where “and” joins values, the source holds several entries; their conditions need not be identical. Equal entries are not always repeated. Where no end group is shown, it is not given here. red fluorescent dye = not defined here
Experiments:
AKT1 = target: T1, AKT1 (Homo sapiens, UniProt P31749); test: AKT1 radioactive in vitro kinase assay (32P incorporation into Ser-21 GSK-3 substrate peptide); assay type: biochemical
T1 construct: purchased Upstate Biotechnology
Description: AKT1 catalytic activity was determined by measuring the incorporation of −^32P into Ser-21 glycogen synthase kinase 3[…] (GSK-3[…]) substrate peptide. Histogram bars represent the number of −^32P counts per minute (CPM). Reactions were carried out in the presence of different concentrations of the ZaTa peptide (SEQ ID NO:60), as well as a control peptide (SEQ ID NO:59) which shares 11 out of 17 amino acids in common with the N-terminus of the ZaTa peptide.
(§1) Of particular interest with regard to inhibitory activity toward AKT was peptide […](SEQ ID NO:60) which flanked the Thr-197 phosphorylation site of PKAc. […] Furthermore, the inhibitory effect of ZaTa peptide was compared with an adjacent peptide ([…] SEQ ID NO:59), a peptide that overlaps with the 11 N-terminal amino acid residues of the ZaTa peptide and carries the Thr-197 phosphorylation site. In this assay, the level of incorporation of −^32 P into Ser-21 GSK-3[…] substrate peptide was used as the measure of AKT1 in vitro catalytic activity.
For non-radioactive kinase assays, typically 25 ng of active AKT1 or PKAc (Upstate Biotechnology) was used in a kinase assay reaction buffer (20 mM MOPS, pH 7.2, 25 mM […]-glycerophosphate, 5 mM EGTA, 1 mM Na3VO4, 1 mM dithiothreitol, 75 mM MgCl2, and 0.5 mM ATP) in the presence of either 1 μL of Ser-9 GSK-3 GST fusion protein (Cell Signaling), or recombinant DARPP-32 (10 μg). For the radioactive kinase assays, typically 25 ng of kinase was added to the kinase assays reaction buffer (20 mM MOPS, pH 7.2, 25 mM […]-glycerophosphate, 5 mM EGTA, 1 mM Na3VO4, 1 mM dithiothreitol) containing 30 μM of dephosphorylated Ser-21 GSK-3 substrate peptide (Upstate Biotechnology) in the presence of different concentrations of inhibitor. Reactions were initiated by adding [−^32P] ATP (10 μCi/reaction) which was diluted in the reaction buffer, plus 500 μM cold ATP and 75 mM MgCl2. Kinase reactions were incubated 30° C. for 10-20 minutes. A 5 μL aliquot of the reaction was transferred to phosphocellulose paper, washed for 30 minutes with dH2O, and CPM of samples read in scintillation counter.

PKAc = target: T2, PKAc (Homo sapiens, UniProt P17612); test: Independent kinase assays on catalytic activity of PKAc; assay type: biochemical
T2 construct: purchased Upstate Biotechnology
Description: as §1
For non-radioactive kinase assays, typically 25 ng of active AKT1 or PKAc (Upstate Biotechnology) was used in a kinase assay reaction buffer (20 mM MOPS, pH 7.2, 25 mM […]-glycerophosphate, 5 mM EGTA, 1 mM Na3VO4, 1 mM dithiothreitol, 75 mM MgCl2, and 0.5 mM ATP) in the presence of either 1 μL of Ser-9 GSK-3 GST fusion protein (Cell Signaling), or recombinant DARPP-32 (10 μg). […] A 5 μL aliquot of the reaction was transferred to phosphocellulose paper, washed for 30 minutes with dH2O, and CPM of samples read in scintillation counter.

PI3K = test: Cell-based kinase assay, phosphorylation of intracellular substrate (Ser-241 PDK1)
Description: As a specific substrate, the phosphorylation level of GSK-3[…] at Ser-9 was also evaluated. […] The decrease was specific to the AKT phosphorylation site on GSK-3[…] at Ser-9, since a change in the phosphorylation level of GSK-3[…] at Tyr-216 or GSK-3[…] at Tyr-279 was not observed. Moreover, the in vivo reduction of the phosphorylation of AKT substrates was more obvious at the injection site, since a significant change in the phosphorylation of AKT substrates in the frontal cortex or cerebellum between the two hemispheres was not observed. […] To test the specificity/selectivity of ZaTa as the inhibitor of AKT1 versus the other major kinases, a series of in vitro kinase assays was performed at IC50 for AKT1 and at ten times higher concentrations. […]
Phosphorylation sites for kinases analyzed herein included Ser-235/236 S6 (a substrate for p70S6K), Tyr-207 CRKL (a substrate for Abl; Zipfel, et al. (2004) supra), Ser-241 PDK1 (a substrate for PI3K), Tyr-1022/1023 JAK1 (a substrate for JAK3; Wang, et al. (2003) supra), Ser-421 Huntingtin (a substrate for SGK; Rangone, et al. (2004) supra), Tyr-783 PLC (a substrate for TrkB; Middlemas, et al. (1994) supra), and Ser-338 cRaf (a substrate for PAK3; King, et al. (1998) supra).

T1 sequence (P31749 whole entry): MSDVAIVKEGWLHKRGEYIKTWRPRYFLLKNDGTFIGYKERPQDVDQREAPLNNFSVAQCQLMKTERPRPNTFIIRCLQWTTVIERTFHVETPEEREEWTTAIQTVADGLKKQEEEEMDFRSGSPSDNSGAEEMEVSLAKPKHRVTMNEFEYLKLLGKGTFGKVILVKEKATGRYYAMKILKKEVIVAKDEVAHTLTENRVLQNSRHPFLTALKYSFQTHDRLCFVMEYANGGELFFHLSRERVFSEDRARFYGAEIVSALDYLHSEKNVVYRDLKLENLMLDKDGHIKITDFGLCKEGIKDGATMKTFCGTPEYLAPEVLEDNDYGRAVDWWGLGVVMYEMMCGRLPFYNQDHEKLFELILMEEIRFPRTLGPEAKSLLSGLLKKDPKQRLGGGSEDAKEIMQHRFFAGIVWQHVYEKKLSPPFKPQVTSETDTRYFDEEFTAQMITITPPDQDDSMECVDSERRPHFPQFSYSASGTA

Substance | IC50 (AKT1; 32P incorporation into Ser-21 GSK-3 substrate peptide, read-out: IC-50, AKT1 catalytic activity in vitro) | IC-50 of the ZaTa peptide (in words) (AKT1; FIG. 1 legend) | whether peptide is a substrate for AKT (AKT1; control kinase reactions with peptide and AKT only) | inhibitory effect on catalytic activity of PKAc (PKAc) | inhibition of PI3K in cells (PI3K)
AKRVKGRTWTLCGTPEY [ZaTa] | ~100 nM and 100 nM | within a nanomolar range | not a substrate for AKT | did not exhibit any inhibitory effect | –
labeled ZaTa: ZaTa peptide labeled with a red fluorescent dye at its N-terminus ({red fluorescent dye}-AKRVKGRTWTLCGTPEY; reading uncertain) | – | – | – | – | did not cause inhibition
